Assay: Henry solubility constant Hcp at 298.15 K (mol/(m3 Pa))
Conditions: reference: Copolovici and Niinemets (2015)

| Compound | Henry solubility constant Hcp |
| --- | --- |
| C=C1CC/C=C(\C)CC[C@H]2[C@H]1CC2(C)C [β-caryophyllene] | 0.00037 |
| CC1=CCC23C[C@H]1C(C)(C)[C@H]2CC[C@@H]3C [α-cedrene] | 0.00028 |
| C=C/C(C)=C/C/C=C(\C)CCC=C(C)C [α-farnesene] | 0.00034 |
| C=CC(C)(O)CC/C=C(\C)CCC=C(C)C (stereo not drawn) [nerolidol] | 0.00032 |
| C/C1=C\CC/C(C)=C/CC(C)(C)/C=C/C1 [α-humulene] | 0.00029 |
| C=C(C)[C@H]1C=C2[C@H](C)CC[C@@H]2[C@H](C)CC1 [γ-gurjunene] | 0.00033 |
| C=C1[C@H]2C[C@H]3[C@@H](C(C)C)CC[C@]1(C)[C@H]3C2 [isosativene] | 0.00039 |
| C=C(C)C1CCC2=CCCC(C)C2(C)C1 (stereo not drawn) [valencene] | 0.00032 |

Further lines, results first:

| Henry solubility constant Hcp | Compound |
| --- | --- |
| 0.00029 | CC1=CCCC2(C)C3CCC12CC3(C)C (stereo not drawn) [α-neoclovene] |
| 0.00029 | C=C1CCCC2(C)C3CCC12CC3(C)C (stereo not drawn) [β-neoclovene] |
| 0.00034 | CC1=CCC2C3C1C2(C)CCCC3(C)C (stereo not drawn) [α-longipinene] |
| 0.00038 | CC(=O)O[C@H]1C[C@H]2CC[C@]1(C)C2(C)C [bornyl acetate] |
| 0.00029 | CC1C=CCC2(C)C3CCC12CC3(C)C (stereo not drawn) [γ-neoclovene] |
